Laboratory results published in patent publication US6277835A, “Method of tumor treatment” (priority 2000, dated 2001).

Tests used:
[1] = tested on: peripheral white cell counts (bone marrow); test: Peripheral white cell counts; settings: day 3; tirapazamine […]; cisplatin 10, 14 and 18 mg/kg
Protocol: Blood samples were taken from tail veins or by cardiac puncture. No anticoagulants were used. Peripheral white cell counts for individual mice were determined from 20 μl whole blood diluted in 0.280 ml 3% acetic acid. For serum BUN assays, blood from two mice was pooled, coagulated, vortexed, and centrifuged at 830 g for 15 minutes. After the serum was aspirated, BUN values were determined by a commercial clinical veterinary laboratory. Survival to 30 days was also recorded in another experiment.

[2] = tested on: kidney (blood urea nitrogen); test: Serum BUN assay; assay type: in vivo, C3H mice; settings: day six
Text: No anticoagulants were used.

RIF-1 cells [3] = test: In vitro RIF-1 clonogenic cell survival under hypoxic conditions; assay type: cell-based; settings: Mus musculus, RIF-1, 1 h, read-out: cell survival
Protocol: (§1) For the studies on cells in vitro, RIF-1 cells were seeded into 60 mm glass petri dishes in Waymouth's medium supplemented with 15% fetal bovine serum at a concentration of 2×10^4 cells per dish. The experiments were performed 4 to 5 days later when there were approximately 10^6 cell per dish at the time of treatment. The growth medium was then replaced with 2 ml of medium without serum containing tirapazamine at a concentration of either 2 or 4 μg/ml. […] To achieve hypoxia, the dishes were loaded into specially fabricated, prewarmed aluminum gassing chambers which were placed in a shaking table and connected to a gassing manifold comprising a vacuum outlet line and inlet lines for air or nitrogen (+5% CO^2). […] After gassing, the chambers were sealed and incubated for one hour at 37 C.

RIF-1 cells [4] = tested on: RIF-1 cells
Protocol: as §1

[5] = tested on: FSaIIC Murine Fibrosarcoma; settings: cited from earlier work

Row | SMILES | leukopenia [1] | BUN level ([2]; 10 mg/kg cisplatin alone, similar to untreated) | BUN level ([2]; 14 mg/kg cisplatin alone, similar to untreated) | BUN level ([2]; 18 mg/kg cisplatin alone) | viability at 2 µg/mL (RIF-1 cells [3]) [%] | viability at 4 µg/mL (RIF-1 cells [3]) [%] | cytotoxicity under aerobic conditions (RIF-1 cells [4]) | effect on tumor cells with carmustine ([5]; SR 4233 just before single-dose carmustine) | effect on tumor cells with cyclophosphamide ([5]; SR 4233 just before single-dose cyclophosphamide) | effect on tumor cells with melphalan ([5]; SR 4233 just before single-dose melphalan) | effect with cisplatin ([5]; SR 4233 just prior to single-dose cisplatin)
1 | N.N.[Cl][Pt][Cl] [cisplatin] | mild leukopenia | approximately 30 mg/dl | approximately 30 mg/dl | about 80 mg/dl | – | – | – | – | – | – | –
2 | Nc1n[n+]([O-])c2ccccc2[n+]1[O-] [tirapazamine, 3-amino-1,2,4-benzotriazine 1,4-dioxide] | – | – | – | – | 30 | 0.9 | no cytotoxicity | marked dose enhancement leading to synergistic cytotoxic effects on tumor cells | marked dose enhancement leading to synergistic cytotoxic effects on tumor cells | marked dose enhancement leading to synergistic cytotoxic effects on tumor cells | additive effect, except at the highest dose level of cisplatin
